The values below come from the supplement of paper PMC10331698.

± gives the standard deviation of the averaged measurements.

What all share (assay): level (log10 ratio to DMSO vehicle control); higher = higher biomarker level / cell amount than vehicle control
Compound in test [1]: C=CC(=O)OCC(F)(F)C(F)(F)C(F)(F)COC(=O)C=C [1H,1H,5H,5H-Perfluoro-1,5-pentanediol diacrylate]
The conditions noted are these: 6700 nM; in DMSO. As to the method:
(§1)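 BioMAP Diversity Plus panel of 12 human primary cell co-culture systems (3C, 4H, LPS, SAg, BT, BF4T, BE3C, CASM3C, HDF3CGF, KF3CT, MyoF, Mphg). Compounds were added 1 h before stimulation and left for 24 h (MyoF 48 h; BT 72 h for soluble read-outs or 6 d for IgG). Biomarkers were read by ELISA, cytotoxicity by SRB, PBMC viability and proliferation by Alamar Blue. Each well value was divided by the mean of 8 DMSO control wells on the same plate and log10 transformed; duplicate blinded samples were tested at 4 concentrations.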

Compound in test [2]: FC(F)(F)C(F)(F)C(F)(F)C(F)(F)C(F)(F)C(F)(F)C(F)(F)I [1-Iodopentadecafluoroheptane]
The conditions noted are these: in DMSO. As for the experimental part:
as §1

Compound in a further test: FC(F)(F)C(F)(F)C(F)(F)CI [Heptafluorobutyl iodide]
The conditions noted are these: in DMSO. As to the method: as §1

Compound in the next test: NC(=O)C(F)(F)C(F)(F)C(F)(F)C(F)(F)C(N)=O [Octafluoroadipamide]
The conditions noted are these: in DMSO. As for the experimental part: as §1

Compound in another test: NC(=O)C(F)(F)C(F)(F)C(F)(F)C(F)(F)F [Nonafluoropentanamide]
The conditions noted are these: in DMSO. As for the experimental part: as §1

Compound in test [3]: O=S(=O)(Cl)C(F)(F)C(F)(F)C(F)(F)C(F)(F)C(F)(F)C(F)(F)C(F)(F)C(F)(F)F [Perfluoro-1-octanesulfonyl chloride]
The conditions noted are these: in DMSO. As for the experimental part:
as §1

Compound in test [4]: O=S(=O)(O)CCC(F)(F)C(F)(F)C(F)(F)C(F)(F)C(F)(F)C(F)(F)F [6:2 Fluorotelomer sulfonic acid]
The conditions noted are these: in DMSO. As to the method:
as §1

In the case of BF4T:Keratin 8/18, the “level (log10)” value in test [1] was 0.0095 ± 0.0092; in test [2] (6700 nM), -0.031 ± 0.021; in test [2] (20000 nM) it was -0.054 ± 0.0028; with Heptafluorobutyl iodide (6700 nM), -0.022 ± 0.014; in the test with Heptafluorobutyl iodide (20000 nM), -0.0265 ± 0.0035; in the test with Heptafluorobutyl iodide (60000 nM), -0.0045 ± 0.039. For the same test system, the “level (log10)” value with Octafluoroadipamide (6700 nM) was -0.0025 ± 0.0092; with Octafluoroadipamide (20000 nM) it was -0.004 ± 0.0014; with Octafluoroadipamide (60000 nM), 0.017 ± 0.033; with Nonafluoropentanamide (6700 nM), -0.008 ± 0.013; with Nonafluoropentanamide (20000 nM), -0.0145 ± 0.015; in the test with Nonafluoropentanamide (60000 nM) it was -0.0305 ± 0.042. Further, the “level (log10)” value was 0.0075 ± 0.00071 in test [3] (6700 nM); 0.0125 ± 0.00071 in test [3] (20000 nM); -0.0805 ± 0.035 in test [3] (60000 nM); 0.0075 ± 0.019 in test [4] (6700 nM); -0.0065 ± 0.016 in test [4] (20000 nM); 0.0045 ± 0.011 in test [4] (60000 nM).
Regarding BF4T:MMP-1, the “level (log10)” value in test [1] was 0.031 ± 0.016; in test [2] (6700 nM), -0.0055 ± 0.018; in test [2] (20000 nM), 0.0005 ± 0.0035; in the test with Heptafluorobutyl iodide (6700 nM), -0.005 ± 0.013; with Heptafluorobutyl iodide (20000 nM), -0.0055 ± 0.0035; with Heptafluorobutyl iodide (60000 nM), 0.0055 ± 0.012. The “level (log10)” value in the test with Octafluoroadipamide (6700 nM) is -0.006 ± 0.0099; with Octafluoroadipamide (20000 nM), -0.0095 ± 0.0021; with Octafluoroadipamide (60000 nM) it was 0.004 ± 0.016; with Nonafluoropentanamide (6700 nM), -0.009 ± 0.0042; in the test with Nonafluoropentanamide (20000 nM), -0.0005 ± 0.013; with Nonafluoropentanamide (60000 nM) it was -0.01 ± 0.0099. In addition, the “level (log10)” value in test [3] (6700 nM) is 0.008 ± 0.016; in test [3] (20000 nM), 0.025 ± 0.014; in test [3] (60000 nM) it was -0.042 ± 0.0071; in test [4] (6700 nM) it was -0.0085 ± 0.00071; in test [4] (20000 nM), -0.0125 ± 0.0078; in test [4] (60000 nM) it was 0.0065 ± 0.013.
As for BF4T:MMP-3, the “level (log10)” value in test [1] was 0.056 ± 0.028; in test [2] (6700 nM), -0.0345 ± 0.039; in test [2] (20000 nM) it was -0.0315 ± 0.016; in the test with Heptafluorobutyl iodide (6700 nM), 0.0245 ± 0.036; with Heptafluorobutyl iodide (20000 nM) it was -0.02 ± 0.0014; with Heptafluorobutyl iodide (60000 nM), 0.026 ± 0.017. The “level (log10)” value is -0.0145 ± 0.0078 with Octafluoroadipamide (6700 nM); -0.0145 ± 0.015 in the test with Octafluoroadipamide (20000 nM); 0.003 ± 0.038 in the test with Octafluoroadipamide (60000 nM); -0.03 ± 0.0099 with Nonafluoropentanamide (6700 nM); -0.0415 ± 0.012 with Nonafluoropentanamide (20000 nM); -0.0105 ± 0.015 with Nonafluoropentanamide (60000 nM). In addition, the “level (log10)” value in test [3] (6700 nM) is -0.0125 ± 0.0021; in test [3] (20000 nM), 0.0225 ± 0.028; in test [3] (60000 nM), -0.0595 ± 0.0035; in test [4] (6700 nM) it was -0.0095 ± 0.074; in test [4] (20000 nM) it was -0.0015 ± 0.0035; in test [4] (60000 nM), 0.0515 ± 0.025.
For BF4T:MMP-9, the “level (log10)” value is -0.02 ± 0.021 in test [1]; -0.0345 ± 0.063 in test [2] (6700 nM); -0.019 ± 0.013 in test [2] (20000 nM); -0.008 ± 0.0085 in the test with Heptafluorobutyl iodide (6700 nM); -0.018 ± 0.013 with Heptafluorobutyl iodide (20000 nM); 0.0025 ± 0.03 in the test with Heptafluorobutyl iodide (60000 nM). Further, the “level (log10)” value with Octafluoroadipamide (6700 nM) is -0.0245 ± 0.005; with Octafluoroadipamide (20000 nM), -0.016 ± 0.016; with Octafluoroadipamide (60000 nM), 0.0115 ± 0.046; with Nonafluoropentanamide (6700 nM) it was -0.026 ± 0.068; with Nonafluoropentanamide (20000 nM) it was -0.051 ± 0.016; with Nonafluoropentanamide (60000 nM) it was 0.004 ± 0.017. For the same test system, the “level (log10)” value in test [3] (6700 nM) is 0.0055 ± 0.0078; in test [3] (20000 nM), 0.0065 ± 0.021; in test [3] (60000 nM) it was -0.314 ± 0.083; in test [4] (6700 nM) it was -0.0015 ± 0.036; in test [4] (20000 nM), -0.0095 ± 0.0078; in test [4] (60000 nM), 0.018 ± 0.024.
For the test system BF4T:PAI-I, the “level (log10)” value is -0.0285 ± 0.00071 in test [1]; -0.004 ± 0.0085 in test [2] (6700 nM); -0.0235 ± 0.0092 in test [2] (20000 nM); 0.0005 ± 0.0092 with Heptafluorobutyl iodide (6700 nM); -0.002 ± 0.0042 with Heptafluorobutyl iodide (20000 nM); 0.0065 ± 0.021 in the test with Heptafluorobutyl iodide (60000 nM). For the same test system, the “level (log10)” value with Octafluoroadipamide (6700 nM) was -0.0005 ± 0.0035; with Octafluoroadipamide (20000 nM) it was -0.0035 ± 0.00071; in the test with Octafluoroadipamide (60000 nM), 0.015 ± 0.023; with Nonafluoropentanamide (6700 nM) it was -0.0145 ± 0.0064; with Nonafluoropentanamide (20000 nM), -0.0055 ± 0.0035; with Nonafluoropentanamide (60000 nM), 0.0015 ± 0.021. For the same test system, the “level (log10)” value is -0.001 ± 0.0085 in test [3] (6700 nM); -0.015 ± 0.0099 in test [3] (20000 nM); -0.17 ± 0.0078 in test [3] (60000 nM); 0.0075 ± 0.005 in test [4] (6700 nM); -0.0235 ± 0.012 in test [4] (20000 nM); -0.0265 ± 0.0078 in test [4] (60000 nM).
Take BF4T:SRB: the “level (log10)” value is -0.005 ± 0.0042 in test [1]; -0.0085 ± 0.0092 in test [2] (6700 nM); -0.008 ± 0.0014 in test [2] (20000 nM); 0.001 ± 0.0028 in the test with Heptafluorobutyl iodide (6700 nM); -0.002 ± 0.0071 with Heptafluorobutyl iodide (20000 nM); 0.0015 ± 0.0064 with Heptafluorobutyl iodide (60000 nM). In addition, the “level (log10)” value is -0.006 ± 0.0071 with Octafluoroadipamide (6700 nM); -0.002 ± 0.0028 with Octafluoroadipamide (20000 nM); 0.001 ± 0.0071 in the test with Octafluoroadipamide (60000 nM); -0.018 ± 0.0042 with Nonafluoropentanamide (6700 nM); -0.017 ± 0.016 with Nonafluoropentanamide (20000 nM); -0.019 ± 0.0028 with Nonafluoropentanamide (60000 nM). In addition, the “level (log10)” value is -0.0015 ± 0.005 in test [3] (6700 nM); -0.011 ± 0.0014 in test [3] (20000 nM); -0.251 ± 0.0085 in test [3] (60000 nM); 0.0005 ± 0.00071 in test [4] (6700 nM); -0.003 ± 0.0042 in test [4] (20000 nM); -0.003 ± 0.0057 in test [4] (60000 nM).
On to BF4T:tPA, for which the “level (log10)” value in test [1] is -0.071 ± 0.014; in test [2] (6700 nM) it was 0.022 ± 0.025; in test [2] (20000 nM), -0.0085 ± 0.016; with Heptafluorobutyl iodide (6700 nM), -0.016 ± 0.0042; in the test with Heptafluorobutyl iodide (20000 nM) it was -0.0235 ± 0.0078; with Heptafluorobutyl iodide (60000 nM), -0.009 ± 0.05. Further, the “level (log10)” value in the test with Octafluoroadipamide (6700 nM) was -0.0475 ± 0.035; with Octafluoroadipamide (20000 nM), -0.047 ± 0.045; with Octafluoroadipamide (60000 nM), -0.023 ± 0.081; with Nonafluoropentanamide (6700 nM), -0.021 ± 0.018; in the test with Nonafluoropentanamide (20000 nM), -0.043 ± 0.023; with Nonafluoropentanamide (60000 nM), -0.0405 ± 0.0078. The “level (log10)” value in test [3] (6700 nM) was -0.0495 ± 0.029; in test [3] (20000 nM), -0.047 ± 0.057; in test [3] (60000 nM), -0.181 ± 0.085; in test [4] (6700 nM), -0.008 ± 0.027; in test [4] (20000 nM), -0.036 ± 0.028; in test [4] (60000 nM) it was -0.0355 ± 0.036.
